Experimental data as given in patent US12239661B2, “Methods and compositions for treating undesired implanted tissue filler” (priority 2019, dated 2025).
Marks after values point to notes of the source that are not given here.

Key:
[1] = X-ray CT of volume, mean density and 3D shape of Radiesse nodules and injected hyperosmotic solutions (Example 4); format: in vivo, Pig (Sus scrofa domesticus)
Method: Pigs are injected by SC route with Radiesse® filler without Lidocaine (Test item). One hour after the Radiesse® filler injection, selected different hyperosmotic solutions are injected by SC route into the dermal filler nodules. For two Radiesse® filler nodules per pig, no additional product is injected; these nodules are used as controls.
The evolution over time of the volume and mean density of the Radiesse® filler nodules with injection of the different solutions are assessed by CT-scanner at selected time points: on Day 0, at about 1 hour (h) and 15 minutes (min), 2 h and 4 h after the Radiesse® filler injection and solution injection, and then, on Day 1 (about 24 h after Radiesse® filler injection), Day 3, Day 7 and Day 15.
On Day 0, 4 pigs received ten (10) SC injections of Radiesse® dermal filler (P20WK-EE-01) of about 500 μl/nodule in the flank (ventral area) at T=0. One hour after Radiesse® dermal filler injections (T=1 h), about 1.5 ml of different hyperosmotic solutions (P20WK-EE-02 to P20WK-EE-05) were each injected into 8 Radiesse® filler nodules. Two Radiesse® filler nodules per animal were not injected with hyperosmotic solution and served as controls.
A total of 7 CT-scans were performed at 1 h 15±10 min, 2 h±15 min, 4 h±20 min, 1 day (24 h±1 h), 3, 7 and 15 days after injection of the dermal filler, as described in FIG. 9A.
On Day 0 (TO), 10 SC injections of test item P20WK-EE-01 (Radiesse® dermal filler) were performed in the ventral area (five nodules on each flank of the ventral area). For each SC nodule, a theoretical volume of 500 μL was administered. One hour (±5 min) after injection of dermal filler, SC injections of the different solutions (prepared on Day −3) were performed into 8 nodules of dermal filler. For each injection of solution, a theoretical volume of 1.5 mL was administered (see, e.g., injection scheme in Table 11).
In order to measure the volume, the mean density and to visualize the 3D shape of the dermal filler SC injected (in presence or absence of different hyperosmotic solutions), in vivo CT-scans were performed on Day 0: 1 h 15 (±10 min), 2 h (±15 min) and 4 h (±20 min), on Day 1 (24 h±1 h), Day 3, Day 7 and Day 15.
The CT acquisitions are analyzed with the software Avizo version 9.2.0. The objective of this analysis was to assess the dispersion over time of the Radiesse® dermal filler injected by SC route after injection of different hyperosmotic solutions.
To achieve this goal, the evolution of these parameters is observed over time: • the volume of each nodule (Radiesse® dermal filler and solution separately), • the mean density of each nodule (Radiesse® dermal filler and solution separately), • the 3D shape of each nodule by visualization of the 3D model of each nodule at each time point (Radiesse® dermal filler with or without solution separately). Segmentation:
An image segmentation is performed on each CT acquisition on the […] reconstruction. At first, a manual pre-segmentation is performed around each nodule in order to roughly isolate the voxels corresponding to Radiesse® dermal filler and hyperosmotic solutions and defined a Region of Interest (ROI). Secondly, an automatic segmentation is applied on the ROI previously defined using a global grey level thresholding procedure. […] Similarly, all the voxels having a grey level between these HU values are selected in a ROI and corresponds to the pure solution or solution containing some dispersed Radiesse® dermal filler (see, FIG. 10).
Then, a 3D model of these selected voxels (see, FIG. 11) is obtained allowing the calculation of the total volume (in mm^3) and the mean density (in HU) of the two defined compartments of each nodule of Pure Radiesse® dermal filler and of each solution containing or not containing dispersed Radiesse® dermal filler.
The volume (in mm^3) of the ROI of Radiesse® dermal filler and the solutions corresponding to each nodule and the mean density (in HU) of each nodule are calculated at each time point.

[2] = In vivo CT of filler nodule volume, density and 3D shape after test solutions 0-8 (Example 3); conditions: for Change in Volume as percent of Injected Volume, Day 14/15: Example 3 (Day 14); for Change in Volume as percent of Injected Volume, Day 14/15 / Change in Volume as percent of Injected Volume, Day 0 + 2 h / Change in Volume as percent of Injected Volume, Day 0 + 4 h / Change in Volume as percent of Injected Volume, Day 1 / Change in Volume as percent of Injected Volume, Day 3 / Change in Volume as percent of Injected Volume, Day 7 / Change in Volume as percent of Injected Volume, Day 0 + 1 h 15: mean; for Change in Volume as percent of Injected Volume, Day 0 + 2 h / Change in Volume as percent of Injected Volume, Day 0 + 4 h / Change in Volume as percent of Injected Volume, Day 1 / Change in Volume as percent of Injected Volume, Day 3 / Change in Volume as percent of Injected Volume, Day 7 / Change in Volume as percent of Injected Volume, Day 0 + 1 h 15: Example 3; for Change in Volume as percent of Injected Volume, Day 0 + 1 h 15: 1.5 mL solution into 500 μl nodule; for effect on volume at the filler injection site: after 7 and 14 days, vs untreated
Method: One hour after filler injections (T=1 h), 1.5 mL of selected solutions (Table 5, solutions 0-8, test items, solution 0 is normal saline and not hyperosmotic) were injected each into 9 dermal filler nodules in the right flank (ventral area).
A total of 7 CT-scans were performed at 1 h 15, 2 h, 4 h, 1 day (24 h), 3, 7 and 14 days after injection of the dermal filler. The clinical state of each animal is assessed once a week by body weight measurement and clinical observations.
The 10 SC injections of dermal filler on Day 0 were performed in the ventral area, (five nodules on each flank of the ventral area) for each pig. For each SC nodule, a theoretical volume of 500 μl was administered. One hour (±5 min) after injection of dermal filler, SC injection of the different solutions (prepared the day before) were performed into nine (9) nodules of dermal. For each SC nodule, a theoretical volume of 1.5 mL of test solution was administered.
The X-ray computed tomography acquisitions were performed with the Computed Tomography Scanner BrightSpeed 16 (General Electric). In order to measure the volume and the mean density and to visualize the 3D shape of the dermal filler (Radiesse® filler with or without test solution) injected, in vivo CT-scans were performed on Day 0: 1 h 15 (±10 min), 2 h (±15 min) and 4 h (±20 min), on Day 1 (24 h+1 h), Day 3, Day 7 and Day 14.
During CT acquisition on Day 0, the pigs received an IM injection of anesthesia. The animals were maintained under anesthesia until the CT acquisition at T=2 h (2 h after dermal filler injection session). Between these CT acquisitions, the animals were under surveillance in the recovery room on a heating mat with fluidotherapy. At the end of the CT acquisition at T=2 h, the pigs received a tattoo around each injected site. During the CT acquisitions at T=4 h and on Days 1, 3, 7 and 14, pigs received an IM injection of anesthesia. For the CT-scans, animals were positioned in dorsal recumbency and acquisitions were centered on the injection sites. The parameters of the CT-scan are described in Table 5.
The CT acquisition was analyzed with the software Avizo version 9.2.0. The objective of this analysis was to assess the degradation over time of the dermal filler injected by SC route after injection of different test solutions.
An image segmentation processing was performed on each CT acquisition. First, a manual pre-segmentation was performed around each nodule in order to roughly isolate the voxels corresponding to dermal filler product, which defined a Region of Interest (ROI). Second, an automatic segmentation was applied on the previously defined ROI using a global grey level thresholding procedure.
On day 0, a farm pig received ten (10) SC injections of Radiesse® dermal filler 0.5 mL (ventral area) (10 nodules in total). One hour after filler injections (T=1 h), 1.5 mL of one of eight test hyperosmotic solutions (1-8 solutions, Table 5) was injected at an injection site. One injection site was untreated and one injection site was treated with normal saline (0.9% wt/v NaCl).

[3] = listed as Hyperosmotic Saline (sol 1)

Row | Structure (SMILES) | Change in Volume as percent of Injected Volume, Day 14/15 [2] | Change in Volume as percent of Injected Volume, Day 0 + 2 h [2] [%] | Change in Volume as percent of Injected Volume, Day 0 + 4 h [2] | Change in Volume as percent of Injected Volume, Day 1 [2] [%] | Change in Volume as percent of Injected Volume, Day 3 [2] | Change in Volume as percent of Injected Volume, Day 7 [2] | Change in Volume as percent of Injected Volume, Day 0 + 1 h 15 [2] | also measured
1 | O=C([O-])O.[Na+] [sol 14, Sodium hydrogen carbonate (sodium bicarbonate)] | – | – | – | – | – | – | – | Change in Volume as percent of Injected Volume, Day 14/15 ([1]; Example 4 (Day 15), mean): 1977%; Change in Volume as percent of Injected Volume, Day 0 + 1 h 15 ([1]; Example 4, mean): 1529* percent; Change in Volume as percent of Injected Volume, Day 0 + 2 h ([1]; Example 4, mean): 1561%; Change in Volume as percent of Injected Volume, Day 0 + 4 h ([1]; Example 4, mean): 1799%; Change in Volume as percent of Injected Volume, Day 1 ([1]; Example 4, mean): 2214%; Change in Volume as percent of Injected Volume, Day 3 ([1]; Example 4, mean): 2014%; Change in Volume as percent of Injected Volume, Day 7 ([1]; Example 4, mean): 2345%; average of the mean density of solution nodules, T=1 h 15 ([1]; between −100 HU and 250 HU): 25.7±5.5 HU; average of the mean density of solution nodules, T=2 h ([1]; between −100 HU and 250 HU): 14.1±7.1 HU; mean volume of solution with potential dispersed Radiesse, Day 15 ([1]; between −100 HU and 250 HU): 1352.3±570.6 mm^3; mean volume of solution with potential dispersed Radiesse, T=2 h ([1]; between −100 HU and 250 HU): 2577.4±54.0 mm^3; variation of solution volume on Day 15 compared to the injected volume on T=1 h ([1]; between −100 HU and 250 HU): −1.4%; average of the mean density of nodules, Day 15 ([1]; pure Radiesse >250 HU): 441.3±62.9 HU
2 | OC[C@H]1O[C@@](CO)(O[C@H]2O[C@H](CO)[C@@H](O)[C@H](O)[C@H]2O)[C@@H](O)[C@@H]1O [sol 8, Sucrose] | 180.45% | 167.63 | 190.95% | 202.96 | 207.85% | 199.72% | 167.87* percent | effect on volume at the filler injection site [2]: trend to decrease volume of filler
3 | O.O.O.O.O.O.O.O=S(=O)([O-])[O-].[Mg+2] [sol 5, Magnesium sulfate heptahydrate] | 186.95% | 159.33 | 158.84* percent | 188.43 | 206.26* percent | 202.32% | 170.49* percent | –
4 | OCC(O)CO [sol 6, Glycerol] | 173.93* percent | 156.43 | 184.92% | 200.32 | 197.65* percent | 197.62* percent | 151.48% | –
5 | [Cl-].[Na+] [sol 1, Sodium chloride] | – | – | – | – | – | – | – | Change in Volume as percent of Injected Volume, Day 14/15 [2, 3]: 175.89* percent; Change in Volume as percent of Injected Volume, Day 0 + 1 h 15 [2, 3]: 161.28* percent; Change in Volume as percent of Injected Volume, Day 0 + 2 h [2, 3]: 157.58%; Change in Volume as percent of Injected Volume, Day 0 + 4 h [2, 3]: 164.59* percent; Change in Volume as percent of Injected Volume, Day 1 [2, 3]: 202.75%; Change in Volume as percent of Injected Volume, Day 3 [2, 3]: 199.27%; Change in Volume as percent of Injected Volume, Day 7 [2, 3]: 192.06* percent; effect on volume at the filler injection site ([2]; listed as hyperosmotic NaCl): significant decreased volume
6 | CC(=O)[O-].[Na+] [sol 3, Sodium acetate] | 176.61* percent | 154.89 | 165.88% | 202.12 | 197.50* percent | 189.13* percent | 152.73% | –
7 | O.O.O=P([O-])(O)O.[Na+] [sol 2, Sodium dihydrogen phosphate dihydrate] | 179.72* percent | 151.58 | 164.27% | 198.42 | 201.11% | 201.97% | 156.57% | –
